This is an account of results in ChEMBL document CHEMBL3217605, “Synthesis, microbial transformation, and pharmacological evaluation of 4,5-dihydronaphtho[2,1-b]furan-2-ones and related analogues” (Medchemcomm, 2013).

The test system of data set [1] is MDA-MB-231. The experiment in a line: Cytotoxicity against human MDA-MB-231 cells at 10 to 30 uM. It counts as cell-based. The settings on record: mda-mb-231, 30 µM.
For data set [2], the system named is MDA-MB-231. The experiment in a line: Antimigratory activity against human MDA-MB-231 cells assessed cell migration level at 30 uM by wound healing assay. It is filed as functional.
In data set [3] the test system is MDA-MB-231. The experiment in a line: Antimigratory activity against human MDA-MB-231 cells assessed cell migration level at 10 uM by wound healing assay. It is filed as functional.
Data set [4] deals with Microglia. The experiment in a line: Anti-neuroinflammatory activity in LPS-induced activated rat Microglia cells assessed as reduction in TXB2 release at 10 uM. It is filed as functional.
The subject of data set [5] is Microglia. The experiment in a line: Anti-neuroinflammatory activity in LPS-induced activated rat Microglia cells assessed as reduction in super oxide anion radical generation at 10 uM. It counts as functional.
Data set [6] can be described thus: Toxicity in LPS-induced activated rat Microglia cells assessed as LDH release at 0.1 to 10 uM.
Another data set deals with MDA-MB-468. The experiment in a line: Growth inhibition of human MDA-MB-468 cells assessed as cell growth at 10 uM after 48 hrs by SRB assay. It counts as functional. The settings on record: MDA-MB-468, 48 h, read-out: Activity. For orientation: The SRB assay estimates cell density from bound dye.
The subject of the next data set is T47D. The experiment in a line: Growth inhibition of human T47D cells assessed as cell growth at 10 uM after 48 hrs by SRB assay. It counts as functional. The settings on record: read-out: Activity.
Another data set relates to MCF7. The experiment in a line: Growth inhibition of human MCF7 cells assessed as cell growth at 10 uM after 48 hrs by SRB assay. It is filed as functional. The settings on record: MCF7, 48 h, read-out: Activity.
A short description of data set [7]: Growth inhibition of human UACC62 cells assessed as cell growth at 10 uM after 48 hrs by SRB assay. It is filed as functional. The settings on record: UACC-62, 48 h, read-out: Activity.
The subject of the next data set is SK-MEL-5. The experiment in a line: Growth inhibition of human SK-MEL-5 cells assessed as cell growth at 10 uM after 48 hrs by SRB assay. It is filed as functional. The settings on record: SK-MEL-5, 48 h, read-out: Activity.
A further data set concerns M14. The experiment in a line: Growth inhibition of human M14 cells assessed as cell growth at 10 uM after 48 hrs by SRB assay. It counts as functional. The conditions noted are these: M14, 48 h, read-out: Activity.
The subject of another data set is Malme-3M. The experiment in a line: Growth inhibition of human MALME-3M cells assessed as cell growth at 10 uM after 48 hrs by SRB assay. It is filed as functional. The conditions noted are these: read-out: Activity.
The test system of the next data set is PC-3. The experiment in a line: Growth inhibition of human PC3 cells assessed as cell growth at 10 uM after 48 hrs by SRB assay. It counts as functional. The settings on record: PC-3, 48 h, read-out: Activity.
The next data set relates to RPMI-8226. The experiment in a line: Growth inhibition of human RPMI8226 cells assessed as cell growth at 10 uM after 48 hrs by SRB assay. The conditions noted are these: RPMI-8226, 48 h, read-out: Activity. It is filed as functional.
The subject of another data set is K562. The experiment in a line: Growth inhibition of human K562 cells assessed as cell growth at 10 uM after 48 hrs by SRB assay. The settings on record: K562, 48 h, read-out: Activity. It is filed as functional.
A further data set concerns HL-60(TB). The experiment in a line: Growth inhibition of human HL-60(TB) cells assessed as cell growth at 10 uM after 48 hrs by SRB assay. It counts as functional. The settings on record: HL-60, 48 h, read-out: Activity.
Data set [8] is described as follows: Growth inhibition of human NCI60 cells assessed as mean cell growth at 10 uM after 48 hrs by SRB assay. It counts as functional. Details: scale not given: the % may be the effect or the level left.
Data set [9] is described as follows: Anti-neuroinflammatory activity in LPS-induced activated rat Microglia cells assessed as reduction in TXB2 release. It counts as functional.
A short description of data set [10]: Anti-neuroinflammatory activity in LPS-induced activated rat Microglia cells assessed as reduction in super oxide anion radical generation. It counts as functional.
Data set [11] can be described thus: Toxicity in LPS-induced activated rat Microglia cells assessed as LDH release at 10 uM. A general note: LDH in the medium is a marker of cell lysis.

Each structure is given as a SMILES string. pIC50: −log10 of the molar value. Calls of active or inactive are those of the source. No cut-off for these calls is given here.

Broadly, the pIC50 is the IC50 on a negative log10 scale, so that one unit is a factor of ten.

For the compound `COc1ccc2c(c1)[C@@H]1[C@H](CC2)OC(=O)[C@@H]1c1ccccc1` (relative stereo), the Activity entry was “Non-toxic” in the data set with MDA-MB-231 [1], 48.4% with MDA-MB-231 [2], 90.7% in the data set with MDA-MB-231 [3] and “Non-toxic” in data set [6]. Moreover, the inhibition entry in the data set with Microglia [4] and with Microglia [5] was “inactive” throughout.
Turning to `COc1ccc2c(c1)C1=C(C)C(=O)OC1C[C@H]2O` (some centres undefined), the Activity entry is listed as “Non-toxic” in the data set on MDA-MB-231 [1], 42.5% with MDA-MB-231 [2], 51.6% with MDA-MB-231 [3] and “Non-toxic” in data set [6]. In addition, the inhibition result in the data set on Microglia [4] and in the data set with Microglia [5] was “inactive” each time.
On to `COc1ccc2c(c1)C1=C(c3ccccc3)C(=O)OC1CC2` (centres undefined), for which the Activity entry is “Non-toxic” with MDA-MB-231 [1]; 53.2% in the data set with MDA-MB-231 [2]; 76.7% in the data set on MDA-MB-231 [3]; 65.7% in data set [8]; “Non-toxic” in [6]. The growth at 10 µM is 27.4% in the data set on MDA-MB-468; 30.9% with T47D; 59.5% in the data set on MCF7; 35.4% in [7]; 48.7% with SK-MEL-5; 64.9% in the data set with M14. The growth at 10 µM in the data set on Malme-3M is 35.9%; in the data set on PC-3, 32%; in the data set on RPMI-8226 it was 18.1%; with K562, 42.1%; in the data set on HL-60(TB), 53%. Further, the pIC50 in data set [9] was 6.00. Moreover, in the data set with Microglia [5], the inhibition result was “inactive”.
Regarding `COc1ccc2c(c1)C1=C(c3ccccc3)C(=O)OC1C[C@H]2O` (some centres undefined), the Activity result in the data set with MDA-MB-231 [1] is reported as “Non-toxic”; with MDA-MB-231 [2], 45.9%; in the data set with MDA-MB-231 [3] it was 54.4%; in data set [6], “Non-toxic”. The inhibition entry in the data set on Microglia [4] and in the data set on Microglia [5] was “inactive” in each case.
As to `NC(=O)Cc1ccccc1`, the Activity entry is “Non-toxic” in the data set with MDA-MB-231 [1], 70.4% in the data set on MDA-MB-231 [2], 94.5% with MDA-MB-231 [3] and “Non-toxic” in [6]. Besides, the inhibition result with Microglia [4] and with Microglia [5] was “inactive” throughout.
Turning to `COc1ccc2c(c1)C1=C(C)C(=O)OC1CC2` (centres undefined), the Activity result is given as “Non-toxic” in the data set on MDA-MB-231 [1]; 47.8% in the data set with MDA-MB-231 [2]; 71.4% with MDA-MB-231 [3]; 73.9% in data set [8]; “Non-toxic” in data set [6]. In addition, the growth at 10 µM with MDA-MB-468 was 40.8%; in the data set with T47D, 64.3%; in the data set on MCF7, 65.2%; in [7] it was 57.1%; in the data set on SK-MEL-5, 65.8%; in the data set on M14 it was 63.7%. For the same compound, the growth at 10 µM in the data set on Malme-3M came to 35.4%; in the data set with PC-3, 43%; in the data set with RPMI-8226, 20.7%; in the data set with K562, 54.2%; in the data set on HL-60(TB), 74.2%. For the same compound, the inhibition entry in the data set with Microglia [4] and with Microglia [5] was “inactive” each time.
Turning to `COc1ccc2c(c1)[C@@H]1[C@H](CC2)OC(=O)[C@H]1c1ccccc1` (relative stereo), the Activity entry in the data set on MDA-MB-231 [1] is given as “Non-toxic”; in the data set with MDA-MB-231 [2], 45.7%; in the data set with MDA-MB-231 [3], 100%; in [6] it was “Non-toxic”. Further, the inhibition result in the data set on Microglia [4] and in the data set with Microglia [5] was “inactive” each time.
In the case of `C=CCN1C(=O)C(c2ccccc2)=C2c3cc(OC)ccc3CCC21` (centres undefined), the Activity result in the data set with MDA-MB-231 [1] is given as “Non-toxic”; in the data set on MDA-MB-231 [2], 32.9%; in the data set with MDA-MB-231 [3], 47.8%; in [8] it was 59.8%; in [6] it was “Non-toxic”. In addition, the growth at 10 µM in the data set on MDA-MB-468 was 36.3%; with T47D, 40.7%; with MCF7, 61.5%; in [7], 35.3%; in the data set on SK-MEL-5, 40.9%; in the data set on M14 it was 46.7%. Also, the growth at 10 µM in the data set with Malme-3M is 0.19%; in the data set on PC-3, 25.7%; with RPMI-8226, 11.5%; in the data set on K562, 28.3%; in the data set with HL-60(TB), 34.9%. Also, the pIC50 in data set [10] and in [9] was 6.00 each time. Further, the inhibition entry with Microglia [4] and with Microglia [5] was “inactive” throughout.
On to `COc1cccc2c1CC[C@@H]1OC(=O)[C@H](C)[C@H]21`, for which the Activity result in the data set with MDA-MB-231 [1] is given as “Non-toxic”; in the data set on MDA-MB-231 [2] it was 68.4%; in the data set with MDA-MB-231 [3], 87.6%; in data set [6], “Non-toxic”. Further, the inhibition entry in the data set with Microglia [4] and with Microglia [5] was “inactive” in each case.
For the compound `COc1cccc2c1CCC1OC(=O)C(C)=C21` (centres undefined), in data set [11], the Activity entry is reported as “Toxic”.
On to `COc1ccc2c(c1)C1=C(CO)C(=O)OC1CC2` (centres undefined), for which the Activity entry is “Non-toxic” in the data set on MDA-MB-231 [1], 61% with MDA-MB-231 [2], 81.8% in the data set on MDA-MB-231 [3] and “Non-toxic” in data set [6]. For the same compound, the inhibition entry in the data set with Microglia [4] and with Microglia [5] was “inactive” throughout.
